{"source": "patent US11548923B2", "about": "“Peptide compositions and methods of use thereof for disrupting TEAD interactions” (Fred Hutchinson Cancer Center, priority 2017, dated 2023)", "test_system": "8×GTIIC (TEAD luciferase reporter)", "experiment": "Cytosolic peptide expression with 8×GTIIC TEAD luciferase reporter", "assay_type": "cell-based", "conditions": "mCherry-T2a-peptide co-transfected with FLAG-YAP and 8×GTIIC; vs. YAP only", "description": "Cytosolic Peptide Expression. Peptides, FLAG-tagged or not, can be cloned into a mammalian expression vector consisting of a CMV promoter, then a monocistronic mCherry-T2a-peptide sequence. These can be transfected, along with (where indicated) pFLAG-YAP1 and 8×GTIIC-luciferase (Addgene plasmid #34615) into 293T cells. 24 hrs post-transfection, cells can be either harvested for luminescence (ONE-Glo, Promega) or Western blot (anti-FLAG M2, Sigma). Protein Transfection with dfTAT Reagent. Solution was diluted to 50 μM in PBS for a 10× working stock, for a final concentration of 5 μM in culture wells. […] For confirmation of peptide cell penetration, 293T and HeLa cells can be plated in a 96-well plate in DMEM with 10% FBS, 1× penicillin/streptomycin (Pen/Strep) and grown overnight to ˜50% confluence. Cells can be gently washed 3 times with PBS containing 1 mM CaCl2) and 0.5 mM MgCl2, then 2 times in serum-free DMEM. Wells (50 μL total) received either 5 μM (final) peptide in PBS, or PBS alone, and can also receive either 5 μM (final) dfTAT reagent in PBS, or PBS alone, before a 60 minute incubation at 37° C. and 5% CO2 in a humidified tissue culture incubator. After incubation, cells can be gently washed 3 times in PBS, which can be followed by fixation at 4° C. for 10 minutes with 4% formaldehyde in PBS. […]"}
{"sequence": "GSPDEYIERAKECCKKGDIQCCLRIFDESKDPNVMLICLFCW [SEQ ID NO: 12]", "values": [{"measurement": "TEAD luciferase reporter activity (relative luminescence units)", "result": "reduced"}]}
